Paper PMC7717600, “Novel [(N-alkyl-3-indolylmethylene)hydrazono]oxindoles arrest cell cycle and induce cell apoptosis by inhibiting CDK2 and Bcl-2: synthesis, biological evaluation and in silico studies” (Journal of Enzyme Inhibition and Medicinal Chemistry, 2020)

Assays:
A-549 = assay: SRB anti-proliferative assay; format: cell-based; settings: Homo sapiens, A549; A-549, SRB, mean ± SE of 3
Protocol: Staurosporine, a clinically used antitumor drug, was co-assayed as a reference agent for the experiment.
(§1) Examination of the cytotoxic activity for the target conjugates was carried out in accordance with the SRB colorimetric assay protocol, as described previously.
(§2) In vitro anti-proliferative activity assay
(§3) Cells at a concentration of 0.50 x
(§4) Sulfo-Rhodamine-B stain (SRB) assay.
(§5) cell to the wall of the plate.
(§6) wells were prepared for each individual dose).
(§7) Unbound dye was removed by four

HCT-116 = assay: SRB anti-proliferative assay; format: cell-based; settings: Homo sapiens; HCT-116, SRB, mean ± SE of 3
Protocol: (§8) All the newly prepared target conjugates (7, 8a–c, 9 and 10a–e) were investigated for the prospective growth inhibitory actions against three different cancer cell lines viz.; A-549, MDA-MB-231, and HCT-116, using the sulforhodamine B colorimetric (SRB) assay. Staurosporine, a clinically used antitumor drug, was co-assayed as a reference agent for the experiment.
as §1, §2, §3, §4, §5, §6, §7

MDA-MB-231 = assay: SRB anti-proliferative assay; format: cell-based; settings: Homo sapiens; MDA-MB-231, SRB, mean ± SE of 3
Protocol: as §8, §1, §2, §3, §4, §5, §6, §7

CDK1 = tested on: CDK1; parameters: method as in PMID 11439342; settings: CDK1 ref 4; cited from earlier work
CDK2 = CDK2 (Homo sapiens, UniProt P24941); settings: CDK2 ref 4; cited from earlier work
CDK5 = tested on: CDK5; parameters: method as in PMID 11439342; settings: CDK5 ref 4; cited from earlier work

Row | SMILES | IC50 (A-549) [µM] | IC50 (HCT-116) [µM] | IC50 (MDA-MB-231) [µM] | IC50 (CDK1) [µM] | IC50 (CDK2) [µM] | IC50 (CDK5) [µM]
1 | CCn1cc(C=NN=C2C(=O)Nc3ccc(Cl)cc32)c2ccccc21 [Compound 7] | 50 ± 3.37 | 19.7 ± 1.28 | 27.6 ± 1.76 | – | – | –
2 | C=CCn1cc(/C=N/N=C2\C(=O)Nc3ccc(OC(F)(F)F)cc32)c2ccccc21 [Compound 10e] | 40.2 ± 1.88 | 37.4 ± 2.06 | 51.8 ± 3.77 | – | – | –
3 | C=CCn1cc(C=NN=C2C(=O)Nc3ccc(F)cc32)c2ccccc21 [Compound 10b] | 59.9 ± 3.58 | 36.3 ± 2.35 | 54 ± 4.17 | – | – | –
4 | O=C1Nc2ccccc2/C1=C1/Nc2ccccc2C1=NO [Indirubin-3′-oxime] | – | – | – | 0.18 | 0.5 | 0.25
5 | COc1cccc2c1C(=O)c1c(O)c3c(c(O)c1C2=O)C[C@@](O)(C(=O)CO)C[C@@H]3O[C@H]1C[C@H](N)[C@H](O)[C@H](C)O1 [Dox., doxorubicin, reference compound] | 2.3 ± 0.17 | 3.7 ± 0.24 | 4.5 ± 0.29 | – | – | –
